Ends that are not written are not given here.
What was measured:
[1] = tested on: Sheep red blood cells (RBCs); test: Hemolysis; format: cell-based; settings: ovine RBCs, 1 hour at 37 C, up to 15μM peptide, absorbance 415 nm, normalised to Triton X-100; average of three replicates
Protocol: Hemolysis on Sheep red blood cells (RBCs) was used to quantify the destabilization of membranes by leakage of hemoglobin. Sheep blood was obtained through Hemostat Laboratories and stored at 2 – 8 C. A 7 mL aliquot of whole sheep blood was mixed with 7 mL of sterile PBS at pH 7.4. The solution was sedimented via centrifugation for 7 minutes at 2500 rpm. Supernatant was removed and the pellet was resuspended to the original volume of 14 mL. This was repeated three times and the final pellet was resuspended to 14 with PBS. Next, 90 μl of the cell suspension was pipetted into all wells of a conical bottom 96-well plate. […] The absorbance of the plate was taken at 415 nm using a Spectramax M5 multimode plate reader. By using the absorbance of each well compared to the wells without additive and those with Triton-X 100 a percentage of hemolysis was calculated. […]
Hemolytic activity of venom peptides and, more broadly AMPS in general, has often been a first approximation toward assessing potential for further development. […] The peptides we co-incubated with freshly isolated ovine red blood cells and peptide-induced hemolysis was determined by comparing hemoglobin leakage from treated cells to that of untreated cells as well as cells treated with the detergent Triton X-100 as a positive control.

[2] = tested on: Gram-positive and Gram-negative strains; test: Antimicrobial activity over the MIC panel; format: cell-based; settings: highest concentration tested 15μM
Protocol: Six different strains of bacteria were streaked on LB-Miller agar plates from a frozen glycerol stock derived from the original samples shipped from CGSC (Coli Genetic Stock Center, Yale University) or ATCC (American Type Culture Collection) (Escherichia coli D31 CGSC 5165 ([Burman, Nordstrom & Boman, 1968]), Staphylococcus aureus ATCC 35556. Pseudomonas aeruginosa PA-01 ATCC 47085, Acinetobacter baumannii ATCC 19606). For each of the strains a liquid overnight culture was prepared using a single colony into fresh LB broth and placed in a shaking incubator for ~ 18 hours at 37 C at 225 rpm. After the incubation period, a 1:200 dilution was made in fresh LB broth and then used for experimentation. Minimal Inhibitory Concentration (MIC) determinations were performed using mid-log phase bacteria diluted to 5 x 10^5 CFU/mL. Next, 90 μL of this diluted culture was then pipetted into a sterile 96-well plate that contains serially diluted aliquots of the peptide variants to consist of a total volume of 100 μL. This plate was then incubated for 18 hours at 37 C. Bacterial growth was determined by taking an OD600 measurement using a Spectramax M5 multimode plate reader post incubation. Minimal Bactericidal Concentration (MBC) was performed by taking 1 μL of the culture from the MIC plate and then pipetting it on to a fresh LB agar plate. After plating this culture, the plate was then incubated overnight at 37 C. MBC was determined by the growth or the lack of growth from each well on the agar plate.
The ability of L1 and the hydrophobic variants to act as antimicrobials was investigated using the Minimal Inhibitory Concentration (MIC) and Minimal Bactericidal Concentration (MBC) assays as previously described ([Wiegand, Hilpert & Hancock, 2008]). The MIC is determined as the lowest concentration of peptide required to inhibit bacterial growth in solution, while the MBC is the lowest concentration required to act in a bactericidal mechanism (as opposed to bacteriostatic) and is determined by plating MIC cultures on antimicrobial-free media. Peptides were screened against E. coli, S. aureus, A. baumannii, P. aeruginosa, B. subtilis, and K. pneumoniae.

[3] = tested on: E. coli D31 inner membrane; test: E. coli inner membrane permeabilization (ONPG / β-galactosidase); format: cell-based, Escherichia coli; settings: E. coli D31, ONPG hydrolysis, absorbance 420 nm, up to 90 minutes; average of three replicates
Protocol: A single colony of E.coli D31 was inoculated into LB broth and placed in a shaking incubator and set to 225 rpm at 37 C for ~ 18 hours. A 1:250 dilution was made using the overnight culture into fresh LB broth. To induce the expression the expression of β-galactosidase, a final concentration of 100mM of IPTG was introduced. This dilution plus the IPTG was placed back into the shaking incubator for about 2 hours until an OD600 of 0.2-0.4 was achieved.
A 96 well plate was prepared with the following solutions in order: 10 μL of each peptide variant 2-fold serially diluted down the plate with the exception of the final row (used as a negative control 10 μL of 0.01% acetic acid), 56 μL Z-buffer (60mM Na2HPO4, 40mM NaH2PO4, 10mM KCl, 1mM MgSO4, 50mM β-mercaptoethanol pH 7), 19 μL of the E. coli culture, and 15 μL of 4 mg/ml ONPG that was prepared in Z-buffer added immediately before the assay began. Absorbance measurements wer taken at 420 nm every 5 minutes for a total run time of 90 minutes. […]
As the mechanism of action of the L1 venom peptide is likely a membrane disruptive mechanism, the effect of the hydrophobic substitutions on membrane permeabilization was investigated using E.coli and ovine red blood cells (RBCs). […] Similarly, the permeabilization of the E. coli inner membrane was assessed using a cytoplasmic enzyme, β-galactosidase, and a chromogenic substrate, ONPG. […]

Sequence	Hemolysis [1]	Antimicrobial activity (summary of MIC results) [2]	Inner membrane permeabilization [3]
FFKEFWTKMKGAGKAFFGKFKGFF [L1F]	do not cross the threshold for inducing hemolytic activity	broad spectrum activity	exhibited any inner membrane permeabilizing activity
LLKELWTKMKGAGKALLGKLKGLL [L1L]	do not cross the threshold for inducing hemolytic activity	broad spectrum activity	exhibited any inner membrane permeabilizing activity
